In paper PMC7126698 (Bioorganic & Medicinal Chemistry, 2008):

Tested on: mature 3CL protease
Assay type: biochemical, SARS coronavirus

In the case of “H-Thr-Ser-Ala-Val-Leu-Gln-Ser-Gly-Phe-Arg-Lys-NH2 [SO1]”, the “disappearance of SO1” value is reported as “completely disappeared within 1 h”.
